Results reported in ChEMBL document CHEMBL1201862, “PubChem BioAssay data set” (2004).
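1) Cells in 96-well plates. 2) Compound, 48 h, 5 concentrations. 3) Linear interpolation between surrounding doses. 4) Unreached endpoint = highest concentration. At the GI50, growth is halved.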 Calls of active or inactive are those of the source. No stated cut-off is given here; in the data, active = GI50 up to about 1.1 µM and inactive = higher.

Legend:
Assay in all cases: NCI anticancer screen, dose series, 48 h
OVCAR-8 = tested on: OVCAR-8
SK-MEL-5 = tested on: SK-MEL-5
NCI-H23 = tested on: NCI-H23
ACHN = tested on: ACHN
UO-31 = tested on: UO-31
UACC-257 = tested on: UACC-257
KM-20L2 = tested on: KM-20L2
HCT-116 = tested on: HCT-116
NCI-H460 = tested on: NCI-H460
Malme-3M = tested on: Malme-3M
U-251 = tested on: U-251
SK-MEL-28 = tested on: SK-MEL-28
SF-295 = tested on: SF-295
SR = tested on: SR
PC-3 = tested on: PC-3
MDA-N = tested on: MDA-N
Hs-578T = tested on: Hs-578T
MDA-MB-231 = tested on: MDA-MB-231
T47D = tested on: T47D
MCF7 = tested on: MCF7

Measured: GI50

COc1ccc(C2=C(Cl)c3cc(OC)c(OC)cc3C2Cl)cc1OC (stereo not drawn)
inactive: OVCAR-8 15.4 µM | SK-MEL-5 14.6 µM | NCI-H23 15.9 µM | ACHN 16.6 µM | UO-31 16.3 µM | UACC-257 17.8 µM | KM-20L2 15.6 µM | HCT-116 15.2 µM | NCI-H460 16.5 µM | Malme-3M 19.6 µM | U-251 15.4 µM | SK-MEL-28 17 µM | SF-295 18.3 µM

CC(=O)N1c2ccccc2C2=CC3C4C(=O)N(c5ccccc5)C(=O)C4C21C1C(=O)N(c2ccccc2)C(=O)C31 (stereo not drawn)
inactive: SR 32.5 µM | OVCAR-8 23.1 µM | NCI-H23 48.2 µM | ACHN 31 µM | UO-31 48.3 µM | UACC-257 13.8 µM | KM-20L2 30.3 µM | HCT-116 3.83 µM | NCI-H460 16.8 µM | Malme-3M 99.5 µM | U-251 13.9 µM | SK-MEL-28 > 100 µM | SF-295 7.06 µM

COc1cc(CNc2nc3ccc(C(F)(F)F)cc3nc2-c2ccccc2)cc(OC)c1OC
inactive: OVCAR-8 47.5 µM | SK-MEL-5 18.7 µM | NCI-H23 27.9 µM | UO-31 5.93 µM | UACC-257 34.9 µM | KM-20L2 > 100 µM | HCT-116 15.4 µM | NCI-H460 34.1 µM | Malme-3M 29.6 µM | U-251 44.5 µM | SK-MEL-28 55.3 µM | SF-295 34.7 µM

NC(=O)CN(CC(N)=O)C(N)=O
inactive: OVCAR-8 > 100 µM | SK-MEL-5 > 100 µM | NCI-H23 > 100 µM | ACHN > 100 µM | UO-31 > 100 µM | UACC-257 > 100 µM | KM-20L2 > 100 µM | HCT-116 > 100 µM | NCI-H460 > 100 µM | Malme-3M > 100 µM | U-251 > 100 µM | SK-MEL-28 > 100 µM | SF-295 > 100 µM

O=C(c1ccco1)N(C(=S)N1CCN(c2ccccn2)CC1)C1CCCCC1
inactive: SR > 100 µM | OVCAR-8 > 100 µM | SK-MEL-5 > 100 µM | NCI-H23 > 100 µM | ACHN > 100 µM | UO-31 83.4 µM | UACC-257 > 100 µM | KM-20L2 > 100 µM | HCT-116 > 100 µM | NCI-H460 > 100 µM | Malme-3M > 100 µM | U-251 > 100 µM | SK-MEL-28 > 100 µM | SF-295 > 100 µM

CN(Cc1ccccc1)c1nc(=[N+](C)C)ss1
inactive: SR 44.2 µM | OVCAR-8 > 100 µM | SK-MEL-5 58.6 µM | NCI-H23 31.8 µM | ACHN > 100 µM | UO-31 > 100 µM | UACC-257 56.5 µM | KM-20L2 > 100 µM | HCT-116 34.6 µM | NCI-H460 16.9 µM | Malme-3M > 100 µM | U-251 40.8 µM | SK-MEL-28 > 100 µM | SF-295 > 100 µM

CNC(=O)N(CCCCC(NC(C)=O)C(=O)NCc1ccccc1)Cc1ccccc1 (stereo not drawn)
inactive: OVCAR-8 > 100 µM | SK-MEL-5 > 100 µM | NCI-H23 > 100 µM | ACHN > 100 µM | UO-31 > 100 µM | UACC-257 > 100 µM | KM-20L2 > 100 µM | HCT-116 > 100 µM | NCI-H460 > 100 µM | Malme-3M > 100 µM | U-251 > 100 µM | SK-MEL-28 > 100 µM | SF-295 > 100 µM

Nc1c(-c2ccccc2-c2c(N)[n+]([O-])c3ccccc3[n+]2[O-])[n+]([O-])c2ccccc2[n+]1[O-]
inactive: SR 4.3 µM | OVCAR-8 3.7 µM | SK-MEL-5 10.7 µM | NCI-H23 15.6 µM | ACHN 8.32 µM | UO-31 10 µM | UACC-257 7.45 µM | KM-20L2 4.33 µM | HCT-116 6.71 µM | NCI-H460 2.51 µM | Malme-3M 35 µM | U-251 5.46 µM | SK-MEL-28 23 µM | SF-295 12.9 µM

COc1ccc(/C=C/c2nnc(S)[nH]2)cc1
inactive: SR > 100 µM | OVCAR-8 > 100 µM | SK-MEL-5 > 100 µM | NCI-H23 > 100 µM | ACHN > 100 µM | UO-31 > 100 µM | UACC-257 > 100 µM | KM-20L2 > 100 µM | HCT-116 > 100 µM | NCI-H460 > 100 µM | Malme-3M > 100 µM | U-251 > 100 µM | SK-MEL-28 > 100 µM | SF-295 > 100 µM

O=C1c2ccncc2C(=O)c2c(O)ccc(O)c21
inactive: SR 11 µM | OVCAR-8 9.64 µM | ACHN 4.27 µM | UO-31 16.2 µM | KM-20L2 2.88 µM | HCT-116 2.91 µM | NCI-H460 11.4 µM | Malme-3M 1.69 µM | U-251 16 µM | SK-MEL-28 11.9 µM | SF-295 12.6 µM

COc1ccc(/C=C/C(=O)c2sc(NC(=S)NC(=O)c3ccc(Cl)cc3)nc2C)cc1OC
inactive: SR 32 µM | OVCAR-8 43.9 µM | NCI-H23 33.5 µM | ACHN 59.6 µM | UO-31 64 µM | UACC-257 47.5 µM | KM-20L2 > 100 µM | HCT-116 51.4 µM | NCI-H460 84.7 µM | Malme-3M 37.2 µM | U-251 34.6 µM | SK-MEL-28 35.9 µM | SF-295 77.4 µM

COc1cc(NS(C)(=O)=O)ccc1NCc1c2ccccc2nc2ccccc12
inactive: SR 4.71 µM | OVCAR-8 30.9 µM | NCI-H23 31 µM | ACHN 29.4 µM | UO-31 19.1 µM | UACC-257 32.9 µM | KM-20L2 50.8 µM | HCT-116 3.45 µM | NCI-H460 34.5 µM | Malme-3M 31.5 µM | U-251 76.6 µM | SK-MEL-28 49.7 µM | SF-295 64 µM

O=C1N/C(=C\[N+](=O)[O-])c2ccccc21
inactive: SR > 100 µM | OVCAR-8 > 100 µM | SK-MEL-5 > 100 µM | NCI-H23 > 100 µM | ACHN > 100 µM | UO-31 > 100 µM | UACC-257 > 100 µM | KM-20L2 > 100 µM | HCT-116 > 100 µM | NCI-H460 > 100 µM | Malme-3M > 100 µM | U-251 > 100 µM | SK-MEL-28 > 100 µM | SF-295 > 100 µM

COc1ccc(C2=NOP(c3ccccc3)(c3ccccc3)(c3ccccc3)C2)cc1
inactive: SR 7.46 µM | OVCAR-8 14.8 µM | SK-MEL-5 13.3 µM | NCI-H23 19.1 µM | ACHN 29.3 µM | UO-31 12.9 µM | UACC-257 28.8 µM | KM-20L2 10 µM | HCT-116 2.39 µM | NCI-H460 9.31 µM | Malme-3M 21.9 µM | U-251 23.5 µM | SK-MEL-28 27.9 µM | SF-295 2.92 µM

O=[N+]([O-])CCc1cccc([N+](=O)[O-])c1
inactive: SR > 100 µM | OVCAR-8 > 100 µM | SK-MEL-5 > 100 µM | NCI-H23 > 100 µM | ACHN > 100 µM | UO-31 > 100 µM | UACC-257 > 100 µM | KM-20L2 > 100 µM | HCT-116 > 100 µM | NCI-H460 > 100 µM | Malme-3M > 100 µM | U-251 > 100 µM | SK-MEL-28 > 100 µM | SF-295 > 100 µM

CCCN(CCCCC(NC(C)=O)C(=O)NCc1ccccc1)C(=O)NCCCl (stereo not drawn)
inactive: SR > 100 µM | OVCAR-8 > 100 µM | SK-MEL-5 > 100 µM | NCI-H23 > 100 µM | ACHN > 100 µM | UO-31 > 100 µM | UACC-257 > 100 µM | KM-20L2 > 100 µM | HCT-116 59.2 µM | NCI-H460 > 100 µM | Malme-3M > 100 µM | U-251 > 100 µM | SK-MEL-28 > 100 µM | SF-295 > 100 µM

COc1cc2cc3c4c(cc(OC)c(OC)c4c2cc1OC)CCN3C(=O)CCC(=O)NCCCN(C)C
inactive: SR 25.2 µM | OVCAR-8 > 100 µM | SK-MEL-5 14.7 µM | NCI-H23 > 100 µM | ACHN > 100 µM | UO-31 > 100 µM | UACC-257 > 100 µM | KM-20L2 24.4 µM | HCT-116 43.1 µM | NCI-H460 33.1 µM | Malme-3M 64.7 µM | U-251 41.9 µM | SK-MEL-28 38.4 µM | SF-295 37 µM

Cc1ccc2c(c1)CN(C(=O)CCC(=O)OCc1ccccc1)c1ccc(C)cc1CN2C(=O)CCC(=O)OCc1ccccc1
inactive: SR > 100 µM | OVCAR-8 > 100 µM | PC-3 > 100 µM | MDA-N > 100 µM | SK-MEL-5 > 100 µM | Hs-578T 40 µM | MDA-MB-231 > 100 µM | NCI-H23 > 100 µM | ACHN > 100 µM | UACC-257 > 100 µM | KM-20L2 > 100 µM | T47D > 100 µM | HCT-116 > 100 µM | NCI-H460 > 100 µM | Malme-3M > 100 µM | U-251 > 100 µM | SK-MEL-28 > 100 µM | SF-295 98.6 µM | MCF7 9.25 µM

CCc1ccccc1-n1c2nc(=O)n(C)c(=O)c-2nc2ccccc21
inactive: OVCAR-8 5.96 µM | SK-MEL-5 4.29 µM | NCI-H23 4.03 µM | ACHN 3.92 µM | UO-31 21.5 µM | UACC-257 5.11 µM | KM-20L2 4.08 µM | HCT-116 12.6 µM | NCI-H460 4.55 µM | Malme-3M 5.7 µM | U-251 16 µM | SF-295 11.5 µM
